Measured values as given in US20100179058A1, “Azolylmethyloxiranes, Their Use for Controlling Phytopathogenic Fungi, and Compositions Comprising Them” (BASF SE, priority 2006, published 2010).

Experiments:
[1] = system: Alternaria solani; experiment: Activity against early blight of tomato caused by Alternaria solani (Alteso P1), greenhouse; assay type: in vivo; settings: tomato plants, comparative experiment, untreated 90
Procedure: The active compounds were prepared separately or jointly as a stock solution comprising 25 mg of active compound which was made up to 10 ml using a mixture of acetone and/or DMSO and the emulsifier Wettol EM 31 (wetting agent having emulsifying and dispersing action based on ethoxylated alkylphenol) in a volume ratio of solvent/emulsifier of 99:1. The mixture was then made up to 100 ml with water. This stock solution was diluted with the solvent/emulsifier/water mixture described to give the concentration of active compound stated below. Leaves of potted tomato plants were sprayed to runoff point with an aqueous suspension having the active compound concentration stated below. The next day, the leaves were inoculated with an aqueous spore suspension of Alternaria solani in a 2% strength biomalt solution. The plants were then placed in a water vapor-saturated chamber at temperatures between 20 and 22° C. After 5 days, the disease on the untreated but infected control plants had developed to such an extent that the infection could be determined visually in %. […]

[2] = system: Botrytis cinerea; experiment: Activity against gray mold on bell pepper leaves caused by Botrytis cinerea, 1 day protective application (Botrci P1), greenhouse; assay type: in vivo; settings: bell pepper seedlings, comparative experiment, untreated 100
Procedure: The active compounds were prepared separately or jointly as a stock solution comprising 25 mg of active compound which was made up to 10 ml using a mixture of acetone and/or DMSO and the emulsifier Wettol EM 31 (wetting agent having emulsifying and dispersing action based on ethoxylated alkylphenol) in a volume ratio of solvent/emulsifier of 99:1. The mixture was then made up to 100 ml with water. This stock solution was diluted with the solvent/emulsifier/water mixture described to give the concentration of active compound stated below. Bell pepper seedlings were, after 2-3 leaves were well developed, sprayed to runoff point with an aqueous suspension having the active compound concentration stated below. The next day, the treated plants were inoculated with a spore suspension of Botrytis cinerea in a 2% strength biomalt solution. The test plants were then placed in a dark climatized chamber at 22 to 24° C., and high atmospheric humidity. After 5 days, the extent of the fungal infection on the leaves could be determined visually in %.

[3] = system: Alternaria solani; experiment: Activity against Alternaria solani early blight pathogen in the microtiter test (Alteso); assay type: cell-based; settings: 125 ppm active compound, microtiter plate, 405 nm, day 7 after inoculation
Procedure: (§1) The active compounds were formulated separately as a stock solution having a concentration of […] in DMSO. The stock solution is pipetted onto a microtiter plate (MTP) and diluted to the stated active compound concentration using a malt-based aqueous nutrient medium for fungi. An aqueous spore suspension of Alternaria solani was then added. The plates were placed in a water vapor-saturated chamber at temperatures of 18° C. Using an absorbtion photometer, the MTPs were measured at 405 nm on day 7 after the inoculation. The measured parameters were compared to the growth of the active compound-free control variant and the fungus- and active compound-free blank value to determine the relative growth in % of the pathogens in the individual active compounds.

[4] = system: Septoria tritici; experiment: Activity against the Septoria leaf blotch pathogen Septoria tritici in the microtiter test (Septtr); assay type: cell-based; settings: 125 ppm active compound, microtiter plate, 405 nm, day 7 after inoculation
Procedure: as §1, with “Septoria tritici” for “Alternaria solani”

SMILES	Infection in % at 63 ppm for Alteso P1 [1]	Infection in % at 63 ppm for Botrci P1 [2]	growth (relative growth in % of the pathogens) [3]	growth (relative growth in % of the pathogens) [4]
Fc1ccccc1C1(Cn2cncn2)OC1c1ccccc1Cl (stereo not drawn) [Comp. No. 6 of EP-A 0196038, reference compound]	90%	100%		
Cc1cccc(C2OC2(Cn2cncn2)c2ccc(F)cc2F)c1 (stereo not drawn) [8.8]			0%	0%
Fc1ccc(C2(Cn3cncn3)OC2c2ccccc2Cl)c(F)c1 (racemic) [8.12]	10%	30%		
